For 10 compounds, T/C results are on record in PubChem BioAssay AID194 (DTP/NCI, 2004).

Several values for one entry are separate records, joined by “and”; a condition that tells them apart may be missing. Identical values can stand only once. Inconclusive results are not listed.

The subject of this assay is BDF1 mice, B16 melanoma s.c., survival/tumor T/C. The assay is described as follows: NCI In Vivo Anticancer Drug Screen. Data for tumor model B16 Melanoma (subcutaneous) in B6D2F1 (BDF1) mice. On the procedure:
The antitumor activity of compounds was measured in mice bearing transplantable tumors. Survival or tumor size were measured and the results are expressed as the measurement made in the treated group (T) divided by the measurement made in the vehicle treated control group (C). The tumor model used in this assay is B16 Melanoma (subcutaneous) in B6D2F1 (BDF1) mice

[1] abbreviates: endpoint: median survival time, dose: 40.0 mg/kg/injection, schedule: Q01DX009 (ip), vehicle: Klucel (hydroxypropylcellulose) (HPC), higher = longer survival.
Where [2] appears, read: endpoint: median survival time, dose: 80.0 mg/kg/injection, schedule: Q01DX009 (ip), vehicle: Klucel (hydroxypropylcellulose) (HPC), higher = longer survival.
The mark [3] stands for this setting: endpoint: median survival time, dose: 160.0 mg/kg/injection, schedule: Q01DX009 (ip), vehicle: Klucel (hydroxypropylcellulose) (HPC), higher = longer survival.
Where [4] appears, read: endpoint: median survival time, dose: 320.0 mg/kg/injection, schedule: Q01DX009 (ip), vehicle: Klucel (hydroxypropylcellulose) (HPC), higher = longer survival.
Where [5] appears, read: endpoint: median survival time, dose: 1.0 mg/kg/injection, schedule: Q01DX009 (ip), vehicle: saline, higher = longer survival.
Setting [6] is: endpoint: median survival time, dose: 50.0 mg/kg/injection, schedule: Q01DX009 (ip), vehicle: Klucel (hydroxypropylcellulose) (HPC), higher = longer survival.
Where [7] appears, read: endpoint: median survival time, dose: 16.0 mg/kg/injection, schedule: Q01DX009 (ip), vehicle: water, higher = longer survival.
Setting [8] is: endpoint: median survival time, dose: 25.0 mg/kg/injection, schedule: Q01DX009 (ip), vehicle: Klucel (hydroxypropylcellulose) (HPC), higher = longer survival.

For `CCOC(=O)CNC(=O)CCCCSc1ncnc2nc[nH]c12`, the T/C (endpoint: median survival time, dose: 20.0 mg/kg/injection, schedule: Q01DX009 (ip), vehicle: Klucel (hydroxypropylcellulose) (HPC), higher = longer survival) is 121 % of control; the T/C under setting [1] is 111 % of control; the T/C under setting [2] is 119 % of control; the T/C under setting [3] was 115 % of control; the T/C under setting [4] is 118 % of control; the T/C (endpoint: median survival time, dose: 640.0 mg/kg/injection, schedule: Q01DX009 (ip), vehicle: Klucel (hydroxypropylcellulose) (HPC), higher = longer survival) is 122 % of control.
For `OCC1OC(n2cnc3c2NC=NC[C@H]3O)CC1O` (stereo partly drawn), the T/C runs as follows: (endpoint: median survival time, dose: 0.05 mg/kg/injection, schedule: Q03HX024 (ip), vehicle: saline, higher = longer survival) 90 % of control; (endpoint: median survival time, dose: 0.1 mg/kg/injection, schedule: Q03HX024 (ip), vehicle: saline, higher = longer survival) 105 % of control.
For the compound `O=C(NP(=O)(N1CC1)N1CC1)c1cc(I)ccc1I`, the T/C was 96 % of control (endpoint: median survival time, dose: 1.0 mg/kg/injection, schedule: Q02DX009 (ip), vehicle: saline with Tween-80, higher = longer survival); 103 % of control (endpoint: median survival time, dose: 1.0 mg/kg/injection, schedule: Q02DX009 (ip), vehicle: saline, higher = longer survival); 98 % of control (endpoint: median survival time, dose: 4.0 mg/kg/injection, schedule: Q01DX001 (oral), vehicle: saline with Tween-80, higher = longer survival); 95 % of control (endpoint: median survival time, dose: 4.0 mg/kg/injection, schedule: Q02DX009 (ip), vehicle: saline with Tween-80, higher = longer survival); 180 % of control (endpoint: median survival time, dose: 4.0 mg/kg/injection, schedule: Q02DX009 (ip), vehicle: saline, higher = longer survival); 92 % of control (endpoint: median survival time, dose: 8.0 mg/kg/injection, schedule: Q01DX001 (oral), vehicle: saline with Tween-80, higher = longer survival). Besides, the T/C runs as follows: (endpoint: median survival time, dose: 8.0 mg/kg/injection, schedule: Q02DX009 (ip), vehicle: saline with Tween-80, higher = longer survival) 88 % of control; (endpoint: median survival time, dose: 8.0 mg/kg/injection, schedule: Q02DX009 (ip), vehicle: saline, higher = longer survival) 153 % of control; (endpoint: median survival time, dose: 16.0 mg/kg/injection, schedule: Q01DX001 (oral), vehicle: saline with Tween-80, higher = longer survival) 91 % of control; (endpoint: median survival time, dose: 16.0 mg/kg/injection, schedule: Q02DX009 (ip), vehicle: saline with Tween-80, higher = longer survival) 117 % of control; (endpoint: median survival time, dose: 16.0 mg/kg/injection, schedule: Q02DX009 (ip), vehicle: saline, higher = longer survival) 180 % of control; (endpoint: median survival time, dose: 32.0 mg/kg/injection, schedule: Q01DX001 (oral), vehicle: saline with Tween-80, higher = longer survival) 93 % of control. Also, the T/C is, setting by setting: (endpoint: median survival time, dose: 32.0 mg/kg/injection, schedule: Q02DX009 (ip), vehicle: saline, higher = longer survival) 97 % of control; (endpoint: median survival time, dose: 64.0 mg/kg/injection, schedule: Q01DX001 (oral), vehicle: saline with Tween-80, higher = longer survival) 105 % of control; (endpoint: median survival time, dose: 512.0 mg/kg/injection, schedule: Q01DX001 (oral), vehicle: saline with Tween-80, higher = longer survival) 88 % of control.
Consider `CCC(=O)OCC(=O)[C@]1(O)Cc2c(O)c3c(c(O)c2[C@@H](OC2CC(N)C(O)C(C)O2)C1)C(=O)c1c(OC)cccc1C3=O` (stereo partly drawn), for which the T/C (endpoint: median survival time, dose: 0.25 mg/kg/injection, schedule: Q01DX009 (ip), vehicle: saline, higher = longer survival) was 90 % of control; the T/C (endpoint: median survival time, dose: 0.5 mg/kg/injection, schedule: Q01DX009 (ip), vehicle: saline, higher = longer survival) is 118 % of control; the T/C under setting [5] is 102 % of control.
Turning to `O=C1CSC(=S)N1c1ccco1`, the T/C reads like this: under setting [6], 111 % of control; (endpoint: median survival time, dose: 400.0 mg/kg/injection, schedule: Q01DX009 (ip), vehicle: Klucel (hydroxypropylcellulose) (HPC), higher = longer survival) 118 % of control.
Consider `CC1(C)N=C(N)N=C(N)N1c1ccc(CCCCc2cccc(S(=O)(=O)F)c2)c(Cl)c1`, for which the T/C by setting is: (endpoint: median survival time, dose: 12.0 mg/kg/injection, schedule: Q01DX009 (ip), vehicle: saline, higher = longer survival) 121 % of control; (endpoint: median survival time, dose: 18.0 mg/kg/injection, schedule: Q01DX009 (ip), vehicle: saline, higher = longer survival) 98 % of control.
Turning to `Cc1c(N)nc([C@H](CC(N)=O)NC[C@H](N)C(N)=O)nc1C(=O)N[C@H](C(=O)N[C@H](C)[C@@H](O)[C@H](C)C(=O)N[C@H](C(=O)NCCc1nc(-c2nc(C(=O)NCCC[S+](C)C)cs2)cs1)[C@@H](C)O)C(OC1OC(CO)C(O)C(O)C1OC1OC(CO)C(O)C(OC(N)=O)C1O)c1cnc[nH]1` (stereo partly drawn), the T/C runs as follows: under setting [5], 120 % of control; (endpoint: median survival time, dose: 2.0 mg/kg/injection, schedule: Q01DX009 (ip), vehicle: water, higher = longer survival) 152 % of control and 160 % of control; (endpoint: median survival time, dose: 3.0 mg/kg/injection, schedule: Q01DX005 (ip), vehicle: water, higher = longer survival) 118 % of control; (endpoint: median survival time, dose: 3.0 mg/kg/injection, schedule: Q01DX009 (ip), vehicle: saline, higher = longer survival) 119 % of control; (endpoint: median survival time, dose: 3.0 mg/kg/injection, schedule: Q01DX009 (ip), vehicle: water, higher = longer survival) 96 % of control; (endpoint: median survival time, dose: 3.12 mg/kg/injection, schedule: Q01DX009 (ip), vehicle: Klucel (hydroxypropylcellulose) (HPC), higher = longer survival) 171 % of control. For the same compound, the T/C was 165 % of control and 179 % of control (endpoint: median survival time, dose: 4.0 mg/kg/injection, schedule: Q01DX009 (ip), vehicle: water, higher = longer survival); 118 % of control (endpoint: median survival time, dose: 6.0 mg/kg/injection, schedule: Q01DX005 (ip), vehicle: water, higher = longer survival); 121 % of control (endpoint: median survival time, dose: 6.0 mg/kg/injection, schedule: Q01DX009 (ip), vehicle: saline, higher = longer survival); 109 % of control (endpoint: median survival time, dose: 6.0 mg/kg/injection, schedule: Q01DX009 (ip), vehicle: water, higher = longer survival); 175 % of control (endpoint: median survival time, dose: 6.25 mg/kg/injection, schedule: Q01DX009 (ip), vehicle: Klucel (hydroxypropylcellulose) (HPC), higher = longer survival); 162 % of control and 185 % of control (endpoint: median survival time, dose: 8.0 mg/kg/injection, schedule: Q01DX009 (ip), vehicle: water, higher = longer survival). In addition, the T/C by setting is: (endpoint: median survival time, dose: 12.0 mg/kg/injection, schedule: Q01DX009 (ip), vehicle: water, higher = longer survival) 112 % of control; (endpoint: median survival time, dose: 12.5 mg/kg/injection, schedule: Q01DX009 (ip), vehicle: Klucel (hydroxypropylcellulose) (HPC), higher = longer survival) 168 % of control; under setting [7], 158 % of control (2×) and 159 % of control; (endpoint: median survival time, dose: 16.0 mg/kg/injection, schedule: Q01DX010 (ip), vehicle: water, higher = longer survival) 93 % of control; (endpoint: median survival time, dose: 20.0 mg/kg/injection, schedule: Q01DX009 (ip), vehicle: saline, higher = longer survival) 161 % of control; (endpoint: median survival time, dose: 24.0 mg/kg/injection, schedule: Q01DX009 (ip), vehicle: saline, higher = longer survival) 112 % of control. The T/C is, setting by setting: under setting [8], 100 % of control; (endpoint: median survival time, dose: 32.0 mg/kg/injection, schedule: Q01DX009 (ip), vehicle: water, higher = longer survival) 171 % of control; (endpoint: median tumor weight (est.), dose: 8.0 mg/kg/injection, schedule: Q01DX009 (ip), vehicle: water, higher = larger tumour) 47 % of control; (endpoint: median tumor weight (est.), dose: 12.0 mg/kg/injection, schedule: Q01DX009 (ip), vehicle: saline, higher = larger tumour) 22 % of control and 43 % of control; (endpoint: median tumor weight (est.), dose: 16.0 mg/kg/injection, schedule: Q01DX009 (ip), vehicle: water, higher = larger tumour) 33 % of control; (endpoint: median tumor weight (est.), dose: 24.0 mg/kg/injection, schedule: Q01DX009 (ip), vehicle: saline, higher = larger tumour) 18 % of control and 27 % of control.
As to `CSCCC(N)C(=O)O` (stereo not drawn), the T/C under setting [1] is 108 % of control, the T/C under setting [2] is 97 % of control, the T/C under setting [3] is 97 % of control and the T/C under setting [4] was 122 % of control.
Take `CC1=CCC(C(C)C)C=C1` (stereo not drawn): the T/C under setting [8] was 121 % of control; the T/C under setting [6] is 117 % of control; the T/C (endpoint: median survival time, dose: 100.0 mg/kg/injection, schedule: Q01DX009 (ip), vehicle: Klucel (hydroxypropylcellulose) (HPC), higher = longer survival) was 89 % of control and 100 % of control; the T/C (endpoint: median survival time, dose: 200.0 mg/kg/injection, schedule: Q01DX009 (ip), vehicle: Klucel (hydroxypropylcellulose) (HPC), higher = longer survival) is 98 % of control and 108 % of control.
On to `C[C@@H](CN1CC(=O)NC(=O)C1)N1CC(=O)NC(=O)C1`, for which the T/C is, setting by setting: (endpoint: median survival time, dose: 6.25 mg/kg/injection, schedule: Q04DX003 (ip), vehicle: saline, higher = longer survival) 91 % of control; (endpoint: median survival time, dose: 12.5 mg/kg/injection, schedule: Q04DX003 (ip), vehicle: saline, higher = longer survival) 97 % of control; (endpoint: median survival time, dose: 16.0 mg/kg/injection, schedule: Q01DX009 (ip), vehicle: Klucel (hydroxypropylcellulose) (HPC), higher = longer survival) 100 % of control; under setting [7], 117 % of control; (endpoint: median survival time, dose: 25.0 mg/kg/injection, schedule: Q04DX003 (ip), vehicle: saline, higher = longer survival) 107 % of control; (endpoint: median survival time, dose: 32.0 mg/kg/injection, schedule: Q01DX009 (ip), vehicle: Klucel (hydroxypropylcellulose) (HPC), higher = longer survival) 110 % of control. Also, the T/C reads like this: (endpoint: median survival time, dose: 64.0 mg/kg/injection, schedule: Q01DX009 (ip), vehicle: Klucel (hydroxypropylcellulose) (HPC), higher = longer survival) 168 % of control; (endpoint: median survival time, dose: 100.0 mg/kg/injection, schedule: Q04DX003 (ip), vehicle: saline, higher = longer survival) 119 % of control; (endpoint: median survival time, dose: 200.0 mg/kg/injection, schedule: Q04DX003 (ip), vehicle: saline, higher = longer survival) 115 % of control; (endpoint: median survival time, dose: 400.0 mg/kg/injection, schedule: Q04DX003 (ip), vehicle: saline, higher = longer survival) 108 % of control; (endpoint: median survival time, dose: 800.0 mg/kg/injection, schedule: Q04DX003 (ip), vehicle: saline, higher = longer survival) 119 % of control.
